The values below come from patent publication US20260234157A1, “COMPOUND AND METHOD FOR TARGETED DEGRADATION OF ANDROGEN RECEPTOR” (Gan & Lee Pharmaceuticals Co., Ltd., priority 2023, published 2026).

Numbering of substitutions follows the chain as printed. Where two headings read alike, the source gives them in different places. Bounds are passed on as bounds.

Assay type in all cases: cell-based
Assay [1] concerns the target T1, AR protein (Homo sapiens, UniProt P10275, T878A).
T1 construct: degradation activity of the compounds disclosed in the present disclosure on AR protein in LNCaP cells; host or cells: LNCaP FGC
T1 sequence (P10275 1-920 T878A): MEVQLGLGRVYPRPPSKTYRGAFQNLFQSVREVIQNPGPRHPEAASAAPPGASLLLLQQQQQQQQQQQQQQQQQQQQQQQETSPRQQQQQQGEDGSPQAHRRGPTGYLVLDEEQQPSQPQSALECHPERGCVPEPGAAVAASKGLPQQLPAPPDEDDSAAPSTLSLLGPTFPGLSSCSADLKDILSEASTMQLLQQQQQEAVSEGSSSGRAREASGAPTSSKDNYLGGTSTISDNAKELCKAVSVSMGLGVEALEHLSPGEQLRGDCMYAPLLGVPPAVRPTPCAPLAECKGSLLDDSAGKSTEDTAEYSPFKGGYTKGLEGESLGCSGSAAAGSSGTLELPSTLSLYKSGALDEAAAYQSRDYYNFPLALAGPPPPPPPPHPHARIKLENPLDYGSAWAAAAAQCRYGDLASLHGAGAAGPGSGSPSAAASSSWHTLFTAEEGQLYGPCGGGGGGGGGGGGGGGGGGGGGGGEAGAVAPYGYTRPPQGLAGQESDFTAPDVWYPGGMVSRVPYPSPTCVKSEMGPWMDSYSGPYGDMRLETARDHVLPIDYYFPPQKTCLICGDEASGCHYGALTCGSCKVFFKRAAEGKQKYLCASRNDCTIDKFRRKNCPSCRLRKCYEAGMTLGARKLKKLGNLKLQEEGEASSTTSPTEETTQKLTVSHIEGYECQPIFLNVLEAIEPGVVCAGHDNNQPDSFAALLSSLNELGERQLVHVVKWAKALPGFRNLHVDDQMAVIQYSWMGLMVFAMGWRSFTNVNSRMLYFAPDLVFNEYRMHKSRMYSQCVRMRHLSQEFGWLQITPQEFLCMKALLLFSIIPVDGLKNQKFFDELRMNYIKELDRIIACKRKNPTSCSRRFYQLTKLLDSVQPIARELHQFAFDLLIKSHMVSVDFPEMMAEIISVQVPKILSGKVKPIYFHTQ
The experiment in a line: Degradation of AR protein in LNCaP cells (Western blot). As to conditions: for inhibition at 0.01 µM: read-out: Degradation rates of the AR protein in LNCaP cells, 10 nM (%); for inhibition at 0.1 µM: read-out: Degradation rates of the AR protein in LNCaP cells, 100 nM (%). In short, it runs like this:
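Percent AR degradation was derived from GAPDH-normalised Western blot band intensities (infrared detection) in LNCaP lysates.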
In general terms: Immunoblotting shows a protein as a band on a membrane.

Assay [2] addresses T2, AR protein (Homo sapiens, UniProt P10275).
T2 construct: degradation activity of the compounds disclosed in the present disclosure on AR protein in VCaP cells; host or cells: VCaP
T2 sequence (P10275 1-920): T1 sequence (P10275 1-920 T878A) with A878T
The experiment in a line: Degradation of AR protein in VCaP cells (Western blot). As to conditions: 8 hours; for inhibition at 0.01 µM: compound at 10 nM, read-out: Degradation rate of the AR protein in VCaP cells, 10 nM (%); for inhibition at 0.1 µM: compound at 100 nM, read-out: Degradation rate of the AR protein in VCaP cells, 100 nM (%). A digest of the protocol: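 Western blot readout: AR band grayscale normalised to GAPDH, used to derive degradation rate. Lysates came from VCaP cells exposed to compound for 8 h, with solvent controls run in parallel.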

The test system of the next assay is LNCaP FGC cells. The experiment in a line: Inhibition of proliferation of LNCaP cells (WST-8). The protocol:
The cells were cultured in a cell culture incubator with 5% CO2 at 37° C. overnight. […] On the sixth day, 96 well plates were taken out, and 20 μL of WST-8 (Beytime, C0040) reagent was added to each well.
A general note: Tetrazolium assays rely on reduction of a dye to a coloured formazan, in cell work by metabolically active cells.

A further assay concerns VCaP cells. The experiment in a line: Inhibition of proliferation of VCaP cells (WST-8). As to conditions: Homo sapiens, read-out: IC50 for inhibiting the proliferation of VCaP cells. A digest of the protocol:
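Proliferation was read by WST-8 on day nine. Cells were VCaP FGC, seeded at 15000 cells per well in 10% FBS DMEM and kept at 37° C with 5% CO2.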

The mark [3] stands for this setting: LNCaP cells, compound 10 nM, 8 hours, Western blot grayscale, GAPDH internal reference.
The mark [4] stands for this setting: LNCaP cells, compound 100 nM, 8 hours, Western blot grayscale, GAPDH internal reference.
The mark [5] stands for this setting: Homo sapiens, LNCaP, 96 h, LNCaP FGC cells, 96 hours, WST-8 absorbance at 450 nm, read-out: IC50 for inhibiting the proliferation of LNCaP cells.
[6] abbreviates: VCaP cells, 168 hours, WST-8 absorbance at 450 nm.

As for `N#Cc1ccc(O[C@H]2CC[C@H](NC(=O)c3ccc(N4CC[C@H](CN5CCC6(CCc7cc8c(cc7O6)C(=O)N(C6CCC(=O)NC6=O)C8=O)CC5)C4)nn3)CC2)cc1Cl` (stereo partly drawn) [Compound 22], the inhibition at 0.01 µM on AR protein [1] (setting [3]) is 71%; on AR protein [2] it was 58%. In addition, the results for the inhibition at 0.1 µM at AR protein [1] (setting [4]) and on AR protein [2] were 84% and 64%, respectively. Besides, the IC50 with LNCaP FGC cells (setting [5]) turned out to be 600 nM; in the assay on VCaP cells (setting [6]) it was 230 nM.

For `N#Cc1ccc(O[C@H]2CC[C@H](NC(=O)c3ccc(N4CCC(CO)(CN5CCC6(CC5)COc5c6ccc6c5CN(C5CCC(=O)NC5=O)C6=O)CC4)nn3)CC2)cc1Cl` (stereo partly drawn) [Compound 257], the inhibition at 0.01 µM at AR protein [1] (setting [3]) came out at 36%; on AR protein [2], 67%. In addition, the inhibition at 0.1 µM was -41% on AR protein [1] (setting [4]) and 75% on AR protein [2]. Also, the IC50 with LNCaP FGC cells (setting [5]) is 14 nM; in the assay on VCaP cells (setting [6]) it was 1.5 nM.

Take `N#Cc1ccc(O[C@H]2CC[C@H](NC(=O)c3ccc(N4CC5(CCC(N6CCC7(CC6)COc6cc8c(cc67)C(=O)N(C6CCC(=O)NC6=O)C8=O)CC5)C4)nn3)CC2)cc1Cl` (stereo partly drawn) [Compound 53]: the figures for the inhibition at 0.01 µM at AR protein [1] (setting [3]) and on AR protein [2] were 69% and 62%, respectively. The values for the inhibition at 0.1 µM at AR protein [1] (setting [4]) and on AR protein [2] were 85% and 71%, respectively. Also, the results for the IC50 with LNCaP FGC cells (setting [5]) and in the assay with VCaP cells (setting [6]) were 380 nM and 43 nM, respectively.

Turning to `CC1(CN2CCC3(CC2)COc2c3ccc3c2CN(C2CCC(=O)NC2=O)C3=O)CCN(c2ccc(C(=O)N[C@H]3CC[C@H](Oc4ccc(C#N)c(Cl)c4)CC3)nc2)CC1` (stereo partly drawn) [Compound 259], the inhibition at 0.01 µM was -16% on AR protein [1] (setting [3]) and 33% at AR protein [2]. In addition, the inhibition at 0.1 µM on AR protein [1] (setting [4]) amounted to 44%; at AR protein [2], 78%. Further, the IC50 is 73 nM in the assay on LNCaP FGC cells (setting [5]) and 1.2 nM with VCaP cells (setting [6]).

As to `N#Cc1ccc(O[C@H]2CC[C@H](NC(=O)c3ccc(N4CCC(CC5CC5)(CN5CCC6(CC5)COc5c6ccc6c5CN(C5CCC(=O)NC5=O)C6=O)CC4)nn3)CC2)cc1Cl` (stereo partly drawn) [Compound 211], the inhibition at 0.01 µM is 45% on AR protein [1] (setting [3]) and -4% at AR protein [2]. Moreover, the results for the inhibition at 0.1 µM at AR protein [1] (setting [4]) and on AR protein [2] were 28% and 46%, respectively. The IC50 in the assay on LNCaP FGC cells (Homo sapiens, LNCaP, 96 h, read-out: IC50 for inhibiting the proliferation of LNCaP cells) was determined as 55 nM; in the assay on VCaP cells (VCaP, 168 h), 2.5 nM.

Regarding `COC1(CN2CCC3(CCc4ccc5c(c4O3)CN(C3CCC(=O)NC3=O)C5=O)CC2)CCN(c2ccc(C(=O)N[C@H]3CC[C@H](Oc4ccc(C#N)c(Cl)c4)CC3)nn2)CC1` (stereo partly drawn) [Compound 167], the figures for the inhibition at 0.01 µM at AR protein [1] (setting [3]) and at AR protein [2] were 45% and 33%, respectively. Moreover, the inhibition at 0.1 µM was 18% on AR protein [1] (setting [4]) and 67% on AR protein [2]. The IC50 with LNCaP FGC cells (LNCaP FGC cells, 96 hours, WST-8 absorbance at 450 nm, read-out: IC50 for inhibiting the proliferation of LNCaP cells) is 80100 nM; in the assay with VCaP cells (setting [6]), more than 90000 nM.

Turning to `COc1cc(O[C@H]2C(C)(C)[C@H](NC(=O)c3ccc(N4CCC(CN5CCC6(CCc7cc8c(cc7O6)CN(C6CCC(=O)NC6=O)C8=O)CC5)CC4)cc3)C2(C)C)ccc1C#N` (stereo partly drawn) [Compound 296], the inhibition at 0.01 µM was found to be 53% on AR protein [1] (setting [3]) and 0% at AR protein [2]. For the same compound, the inhibition at 0.1 µM was found to be 63% on AR protein [1] (setting [4]) and 59% at AR protein [2]. The IC50 in the assay on LNCaP FGC cells (setting [5]) was found to be 6600 nM; with VCaP cells (setting [6]), 1 nM.

As for `COc1cc(O[C@H]2C(C)(C)[C@H](NC(=O)c3ccc(N4CCC(C)(CN5CCC6(CC5)COc5cc7c(cc5C6)C(=O)N(C5CCC(=O)NC5=O)C7=O)CC4)cc3)C2(C)C)ccc1C#N` (stereo partly drawn) [Compound 289], the inhibition at 0.01 µM on AR protein [1] (setting [3]) is 27%; on AR protein [2] it was -21%. Moreover, the inhibition at 0.1 µM came out at 63% on AR protein [1] (setting [4]) and 15% on AR protein [2]. For the same compound, the IC50 with LNCaP FGC cells (setting [5]) was determined as 66000 nM; in the assay on VCaP cells (setting [6]) it was 82 nM.

As to `CCC1(CN2CCC3(CC2)COc2c3ccc3c2CN(C2CCC(=O)NC2=O)C3=O)CCN(c2ccc(C(=O)N[C@H]3C(C)(C)[C@H](Oc4ccc(C#N)c(OC)c4)C3(C)C)cc2)CC1` (stereo partly drawn) [Compound 294], the figures for the inhibition at 0.01 µM at AR protein [1] (setting [3]) and on AR protein [2] were 54% and 13%, respectively. In addition, the results for the inhibition at 0.1 µM at AR protein [1] (setting [4]) and on AR protein [2] were 57% and 62%, respectively. The figures for the IC50 with LNCaP FGC cells (setting [5]) and with VCaP cells (setting [6]) were 77 nM and 2 nM, respectively.

On to `N#Cc1ccc(O[C@H]2CC[C@H](NC(=O)c3ccc(N4CC(CN5CCC6(CCc7cc8c(cc7O6)C(=O)N(C6CCC(=O)NC6=O)C8=O)CC5)C4)nn3)CC2)cc1Cl` (stereo partly drawn) [Compound 20], for which the inhibition at 0.01 µM at AR protein [1] (setting [3]) stood at 13%; at AR protein [2], 41%. Moreover, the inhibition at 0.1 µM at AR protein [1] (setting [4]) was found to be 48%; at AR protein [2] it was 54%. The values for the IC50 with LNCaP FGC cells (setting [5]) and in the assay on VCaP cells (setting [6]) were 1000 nM and 170 nM, respectively.

As to `COc1cc(OC2CCC(NC(=O)c3cnc(N4CCC(C)(CN5CCC6(CC5)COc5c6ccc6c5C(=O)N(C5CCC(=O)NC5=O)C6=O)CC4)nc3)CC2)ccc1C#N` (stereo not drawn) [Compound 246], the inhibition at 0.01 µM was 17% on AR protein [1] (setting [3]) and -19% at AR protein [2]. Moreover, the inhibition at 0.1 µM stood at 43% at AR protein [1] (setting [4]) and 61% on AR protein [2]. Moreover, the IC50 with LNCaP FGC cells (setting [5]) was 870 nM; in the assay on VCaP cells (setting [6]), 120 nM.

As to `N#Cc1ccc(O[C@H]2CC[C@H](NC(=O)c3ccc(N4CC(N5CCC6(CC5)COc5c(ccc7c5C(=O)N(C5CCC(=O)NC5=O)C7)C6)C4)nn3)CC2)cc1Cl` (stereo partly drawn) [Compound 191], the inhibition at 0.01 µM was -2% at AR protein [1] (LNCaP, 8 h) and 31% on AR protein [2]. In addition, the inhibition at 0.1 µM on AR protein [1] (LNCaP, 8 h) was 4%; on AR protein [2], 68%. Further, the IC50 is 15200 nM in the assay with LNCaP FGC cells (Homo sapiens, LNCaP, 96 h, read-out: IC50 for inhibiting the proliferation of LNCaP cells, LNCaP FGC cells, 96 hours, WST-8 absorbance at 450 nm) and more than 90000 nM with VCaP cells (VCaP, 168 h).
